Measured values from patent US10202360B2 (CELGENE QUANTICEL RESEARCH, INC., priority 2016, dated 2019).
pIC50: −log10 of the molar value.

Molecular target: CREBBP (Homo sapiens (Human), UniProt Q92793)
Test: In vitro enzyme inhibition assay - CREBBP inhibition (AlphaScreen, biotinylated H4-tetraacetyl peptide)
Assay type: binding
Settings: Table 28; AlphaScreen, H4-tetraacetyl peptide
Experimental: Determination of the IC50 for the CREBBP inhibitors disclosed herein was performed as follows: CREBBP was cloned and expressed in E. Coli as His-tag protein and purified by Nickel affinity and gel-filtration chromatography. […] CREBBP binding and inhibition was assessed by monitoring the interaction of biotinylated H4-tetraacetyl peptide (AnaSpec, H4K5/8/12/16(Ac), biotin-labeled) with the target using the AlphaScreen technology (Perkin Elmer). In a 384-well ProxiPlate CREBBP (50 nM final) was combined with peptide (20 nM final) in 50 mM HEPES (pH 7.3), 10 mM NaCl, 0.25 mM TCEP, 0.1% (w/v) BSA, and 0.005% (w/v) Brij-35 either in the presence of DMSO (final 0.4% DMSO) or compound dilution series in DMSO. After 20-minute incubation at room temperature, Alpha streptavidin donor beads and Nickel Chelate acceptor beads were added to a final concentration of 5 μg/mL. After two hours of equilibration, plates were read on an Envision instrument and the IC50 was calculated using a four parameter non-linear curve fit.
The ability of the compounds disclosed herein to inhibit CBP activity was quantified and the respective IC50 value was determined.

Sequence of CREBBP (Q92793 1081-1197): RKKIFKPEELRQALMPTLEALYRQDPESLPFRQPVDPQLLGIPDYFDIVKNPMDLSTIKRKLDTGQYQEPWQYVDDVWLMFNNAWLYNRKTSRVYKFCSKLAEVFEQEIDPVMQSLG

SMILES	pIC50
CCCCS(=O)(=O)Nc1cc(-c2cc(C)c(=O)n(C)c2)nc(Oc2c(F)cccc2F)n1 [Example 18, Butane-1-sulfonic acid [2-(2,6-difluoro-phenoxy)-6-(1,5-dimethyl-6-oxo-1,6-dihydro-pyridin-3-yl)-pyrimidin-4-yl]-amide]	> 6.30
Cc1cccc(F)c1Oc1nc(N[C@@H](C)c2ccccc2)cc(-c2ccc(=O)n(C)c2)n1 [Example 310, (S)-5-[2-(2-Fluoro-6-methyl-phenoxy)-6-(1-phenyl-ethylamino)-pyrimidin-4-yl]-1-methyl-1H-pyridin-2-one]	> 6.30
CC[C@H](C)S(=O)(=O)Nc1cc(-c2ccc(=O)n(C)c2)nc(Oc2c(F)cccc2OC)n1 [Example 209, Butane-(2S)-sulfonic acid [2-(2-fluoro-6-methoxy-phenoxy)-6-(1-methyl-6-oxo-1,6-dihydro-pyridin-3-yl)-pyrimidin-4-yl]-amide]	> 6.30
Cc1cc(-c2cc(NS(C)(=O)=O)nc(Oc3ccc(F)cc3F)n2)cn(C)c1=O [Example 61, N-(2-(2,4-difluorophenoxy)-6-(1,5-dimethyl-6-oxo-1,6-dihydropyridin-3-yl)pyrimidin-4-yl)methanesulfonamide]	> 6.30
Cc1cccc(F)c1Oc1nc(NS(=O)(=O)CC(C)C)nc(-c2cc(C)c(=O)n(C)c2)n1 [Example 183, 2-Methyl-propane-1-sulfonic acid [4-(1,5-dimethyl-6-oxo-1,6-dihydro-pyridin-3-yl)-6-(2-fluoro-6-methyl-phenoxy)-[1,3,5]triazin-2-yl]-amide]	> 6.30
Cc1cc(-c2cc(NS(=O)(=O)C(C)C)nc(Oc3ccc(F)cc3)n2)cn(C)c1=O [Example 70, N-(6-(1,5-dimethyl-6-oxo-1,6-dihydropyridin-3-yl)-2-(4-fluorophenoxy)pyrimidin-4-yl)propane-2-sulfonamide]	> 6.30
COC(C)CS(=O)(=O)Nc1cc(-c2cc(C)c(=O)n(C)c2)nc(Oc2c(C)cccc2C)n1 (stereo not drawn) [Example 85, N-(6-(1,5-dimethyl-6-oxo-1,6-dihydropyridin-3-yl)-2-(2,6-dimethylphenoxy)pyrimidin-4-yl)-2-methoxypropane-1-sulfonamide]	> 6.30
Cc1cc2c(Oc3nc(NS(=O)(=O)C(C)C)cc(-c4cc(C)c(=O)n(C)c4)n3)cccc2o1 [Example 58, N-(6-(1,5-dimethyl-6-oxo-1,6-dihydropyridin-3-yl)-2-((2-methylbenzofuran-4-yl)oxy)pyrimidin-4-yl)propane-2-sulfonamide]	> 6.30
CCn1cc(-c2cc(NS(=O)(=O)C(C)C)nc(Oc3ccc(F)cc3F)n2)cc(C)c1=O [Example 44, Propane-2-sulfonic acid [2-(2,4-difluoro-phenoxy)-6-(1-ethyl-5-methyl-6-oxo-1,6-dihydro-pyridin-3-yl)-pyrimidin-4-yl]-amide]	> 6.30
CCCCS(=O)(=O)Nc1cc(-c2cn(C)c(=O)cc2C)nc(Oc2c(C)cccc2C)n1 [Example 89, N-(6-(1,4-dimethyl-6-oxo-1,6-dihydropyridin-3-yl)-2-(2,6-dimethylphenoxy)pyrimidin-4-yl)butane-1-sulfonamide]	> 6.30
CCOc1ccc(C(C)Nc2cc(-c3ccc(=O)n(C)c3)nc(Oc3c(C)cccc3F)n2)cc1 (stereo not drawn) [Example 278, 5-(6-((1-(4-ethoxyphenyl)ethyl)amino)-2-(2-fluoro-6-methylphenoxy)pyrimidin-4-yl)-1-methylpyridin-2(1H)-one]	> 6.30
CCCCS(=O)(=O)Nc1nc(Oc2c(C)cccc2F)nc(-c2ccc(=O)n(C)c2)c1F [Example 352, N-(5-fluoro-2-(2-fluoro-6-methylphenoxy)-6-(1-methyl-6-oxo-1,6-dihydropyridin-3-yl)pyrimidin-4-yl)butane-1-sulfonamide]	> 6.30
Cc1cccc(F)c1Oc1nc(NCCC(C)C)cc(-c2ccc(=O)n(C)c2)n1 [Example 309, 5-[2-(2-Fluoro-6-methyl-phenoxy)-6-(3-methyl-butylamino)-pyrimidin-4-yl]-1-methyl-1H-pyridin-2-one]	> 6.30
CCC(C)S(=O)(=O)Nc1cc(-c2cc(C)c(=O)n(C)c2)nc(Oc2c(C)cccc2C)n1 (stereo not drawn) [Example 84, N-(6-(1,5-dimethyl-6-oxo-1,6-dihydropyridin-3-yl)-2-(2,6-dimethylphenoxy)pyrimidin-4-yl)butane-2-sulfonamide]	> 6.30
CCC[C@@H](C)Nc1cc(-c2ccc(=O)n(C)c2)nc(Oc2c(C)cccc2F)n1 [Example 305]	> 6.30
CCCS(=O)(=O)Nc1cc(-c2cc(C)c(=O)n(C)c2)nc(Oc2c(F)cccc2F)n1 [Example 20, Propane-1-sulfonic acid [2-(2,6-difluoro-phenoxy)-6-(1,5-dimethyl-6-oxo-1,6-dihydro-pyridin-3-yl)-pyrimidin-4-yl]-amide]	> 6.30
CCS(=O)(=O)Nc1cc(-c2ccc(=O)n(C)c2)nc(OC(C)C)n1 [Example 236, Ethanesulfonic acid [2-isopropoxy-6-(1-methyl-6-oxo-1,6-dihydro-pyridin-3-yl)-pyrimidin-4-yl]-amide]	> 6.30
Cn1cc(-c2cc3nc(n2)Oc2cccc(c2)OCCC=CCCS(=O)(=O)N3)ccc1=O [Example 358, 5-(11,11-dioxido-2,4-dioxa-11-thia-12-aza-1(2,4)-pyrimidina-3(1,3)-benzenacyclododecaphan-7-en-1^6-yl)-1-methylpyridin-2(1H)-one]	> 6.30
Cc1cccc(C)c1Oc1nc(NS(=O)(=O)C(C)C)nc(-c2cc(C)c(=O)n(C)c2)n1 [Example 155, Propane-2-sulfonic acid [4-(1,5-dimethyl-6-oxo-1,6-dihydro-pyridin-3-yl)-6-(2,6-dimethyl-phenoxy)-[1,3,5]triazin-2-yl]-amide]	> 6.30
CCCS(=O)(=O)Nc1cc(-c2ccc(=O)n(C)c2)nc(-c2ccccc2OC)n1 [Example 196, Propane-1-sulfonic acid [2-(2-methoxy-phenyl)-6-(1-methyl-6-oxo-1,6-dihydro-pyridin-3-yl)-pyrimidin-4-yl]-amide]	5.30 to 6.30
Cc1cccc(Cl)c1Oc1nc(NC(C)C)cc(-c2ccc(=O)n(C)c2)n1 [Example 283, 5-(2-(2-chloro-6-methylphenoxy)-6-(isopropylamino)pyrimidin-4-yl)-1-methylpyridin-2(1H)-one]	> 6.30
CCC(F)S(=O)(=O)Nc1cc(-c2ccc(=O)n(C)c2)nc(Oc2c(C)cccc2F)n1 (stereo not drawn) [Example 168, 1-Fluoro-propane-1-sulfonic acid [2-(2-fluoro-6-methyl-phenoxy)-6-(1-methyl-6-oxo-1,6-dihydro-pyridin-3-yl)-pyrimidin-4-yl]-amide]	> 6.30
CCCS(=O)(=O)Nc1nc(Oc2c(C)cccc2C)nc(-c2cc(C)c(=O)n(C)c2)c1C [Example 164, Propane-1-sulfonic acid [6-(1,5-dimethyl-6-oxo-1,6-dihydro-pyridin-3-yl)-2-(2,6-dimethyl-phenoxy)-5-methyl-pyrimidin-4-yl]-amide]	> 6.30
Cc1ccc(Cl)cc1Oc1nc(NS(=O)(=O)C(C)C)cc(-c2cc(C)c(=O)n(C)c2)n1 [Example 6, Propane-2-sulfonic acid [2-(5-chloro-2-methyl-phenoxy)-6-(1,5-dimethyl-6-oxo-1,6-dihydro-pyridin-3-yl)-pyrimidin-4-yl]-amide]	> 6.30
